Assay results: article PMC9014412 (Journal of medicinal chemistry, 2022)
Where two headings read alike, the source gives them in different places.

What was measured:
HCT116 cells [1] = experiment: RNA-seq differential gene expression; format: cell-based, human; settings: 10 μM, 24 h
Procedure: RNA-seq analysis was performed in HCT116 cells treated with PROTACs (JPS004, JPS014, JPS016, JPS035, and JPS036) for 24 h at 10 μM concentration. Total RNA was isolated using a Tri-reagent RNA miniprep kit (Zymogen; R2053), before RNA integrity, size, and purity were assessed using an Agilent Bioanalyzer. Library preparation and sequencing were performed by Novogene, using a NovaSeq 6000 PE150 platform at a read depth of 20 million. For bioinformatics analysis, see the Supporting Information. RNA-seq data from the study was deposited at the GEO database (GSE197985).
3. Apoptosis Flow Cytometry Assay
Figure S9. Apoptosis flow cytometry assay with 2.5 µM and 10 µM treatments of JPS016 and JPS016NC at 24 and 48 hours. Error bars represent the average of three independent biological replicates.
µM µM µM 5 µM µM µM µM µM µM µM
4. RNA Seq – Bioinformatics Analysis
Paired-end reads were aligned using HISAT2 (v2.2.1) and mapped to the HISAT2 GRCh38_tran index build.3 Quality control was performed on raw and aligned data using FASTQC (v0.11.9) and summarised using MultiQC (v1.11).4,5 The resulting SAM files were subsequently sorted and converted to the BAM format before indexing with SAMtools (v 1.12).6 Reads were then counted across the exons of each gene and gene loci annotated using command-line program LiBiNorm (v2.4); run in HT-Seq compatibility mode (-z) and provided with the ‘Homosapiens.GRCh38.104’ GTF file obtained from Ensembl. LiBiNorm was run using the following parameters: LiBiNorm count -z -r pos -i gene_name -s reverse <BAM file> Homo_sapiens.GRCh38.104.gtf <OUTPUT file>.7 Default normalisation of expression values and differential gene analysis was then carried out using the R package DESeq2.8 Significance thresholds were set as a p-adjusted value < 0.01 and a fold change > 2 (log2 fold change > 1) and implemented for down-stream analysis, with all plots produced in R. Gene ontology (GO) analysis was carried out using the Bioconductor package topGO using the human genome-wide annotation package to map gene identifiers to the relevant org.Hs.eg.db […]

H3K56ac = experiment: Histone H3 Lys 56 acetylation (H3K56ac) western blotting; format: cell-based, human; settings: HCT116 cells, 24 h, screen at 0.1, 1, 10 μM; relative to DMSO, CI-994 and 1 at 10 μM
Description: (§1) Supporting Information: Biology
(§2) Representative blots of two independent biological replicates.

HDAC3-SMRT complex = biological target: T1, HDAC3-SMRT complex (Homo sapiens, UniProt O15379); experiment: Fluorescent HDAC assay with purified HDAC3-SMRT complex; format: biochemical; settings: Boc-(Ac)Lys-AMC substrate
T1 construct: made in house
Procedure: (§3) 2. In Vitro HDAC Assay with Class I HDAC Complexes
(§4) Histone Deacetylase Assay. Inhibition experiments against HDAC1-CoREST-LSD1, HDAC2-CoREST-LSD1 and HDAC3-SMRT-DAD were conducted using a fluorescent HDAC assay. The assays were carried out utilising a black 96-well plates (Corning) with a reaction volume of 50 µL. HDAC complexes were expressed and purified as described previously.1,2 100 µM of Boc- (Ac)Lys-AMC was used as a substrate in each well. All determinations were performed in triplicate. The inhibitors/PROTACs were dissolved at 50 mM in DMSO, and then further diluted with 10% DMSO HDAC assay buffer (10% DMSO, 50 mM Tris pH 7.5, 50 mM NaCl, 0.1 mg/mL BSA) to micromolar concentrations. 1:3 serial dilutions were then carried out using 10% DMSO HDAC assay buffer to afford range of concentrations. 10 µL of each of these solutions were […]
(§5) assay buffer (50 mM Tris pH 7.5, 50 mM NaCl, 0.1 mg/mL BSA). The plate was then incubated at 20 °C, 100 RPM for 1 hour. After incubation, 10 µL of the Boc-(Ac)Lys-AMC substrate, dissolved in HDAC assay buffer, was added to each well. […] Fluorescence intensity was determined […]
(§6) IC 50 values were calculated through the GraphPad Prism 7 software by non-linear regression, log (inhibitor) vs. response – variable slope […]

[2] = biological target: T2, HDAC2-CoREST-LSD1 complex (Homo sapiens, UniProt Q92769); experiment: Fluorescent HDAC assay with purified HDAC2-CoREST-LSD1 complex; format: biochemical; settings: Boc-(Ac)Lys-AMC substrate
T2 construct: made in house
Procedure: as §3, §4, §5, §6

HDAC3 = HDAC3 (Homo sapiens, UniProt O15379); experiment: HDAC3 degradation by quantitative western blotting in HCT116 cells
Procedure: (§11) Initially, each PROTAC was tested at 0.1, 1, and 10 μM in HCT116 cells for 24 h; then, cell extracts were prepared and evaluated for HDAC1/2 and 3 degradation by quantitative western blotting.
(§12) This cell line was incubated at 37 °C with 5% CO2.
(§13) HCT116 cells were seeded into 6-well plates (4 × 10^5 cells/well for 24 h, 2 × 10^5 cells/well for 48 h) for 24 h and then treated with DMSO or compounds at the indicated concentrations in fresh medium (5 mL total). After desired treatment time, the cells were harvested and then lysed in lysis buffer (50 mM Tris-HCl, 150 mM NaCl, 0.5% NP-40, 0.5% Triton X-100) supplemented with a protease inhibitor (Sigma, P8340). The suspension was incubated on ice for 30 min and centrifuged (18,000 rcf, 15 min, 4 °C); then, the supernatant was collected, and protein concentrations were quantified via Bradford Assay using Protein Assay Dye Reagent Concentrate (BIO-RAD). […] PageRuler Plus Prestained Ladder was used for size standards. After gel electrophoresis at 140 V for 90 min, the separated proteins were transferred onto a nitrocellulose membrane at 30 V for 60 min. The membranes were probed with primary antibodies (see the Supporting Information) for 60−90 min. Blots were developed with complimentary IRDye-conjugated secondary antibodies, and the bands were visualized using an Odyssey infrared imaging system. Image processing and band intensity quantification were performed using Image Studio Lite.

HDAC1 = HDAC1 (Homo sapiens, UniProt Q13547); experiment: HDAC1 degradation by quantitative western blotting in HCT116 cells; settings: for HDAC1 degradation in initial screen (in words): HCT116 cells, 24 h, 0.1, 1 and 10 μM, compared with 1 at 10 μM
Procedure: as §11, §12, §13

[3] = biological target: T3, HDAC1-CoREST-LSD1 complex (Homo sapiens, UniProt Q13547); experiment: Fluorescent HDAC assay with purified HDAC1-CoREST-LSD1 complex; format: biochemical; settings: Boc-(Ac)Lys-AMC substrate
T3 construct: made in house
Procedure: as §3, §4, §5, §6

HDAC2 = HDAC2 (Homo sapiens, UniProt Q92769); experiment: HDAC2 degradation by quantitative western blotting in HCT116 cells; parameters: Dmax: dose or concentration left out as unconfirmed; settings: for HDAC2 degradation in initial screen (in words): HCT116 cells, 24 h, 0.1, 1 and 10 μM, compared with 1 at 10 μM
Procedure: as §11, §12, §13

HCT116 cells [4] = experiment: CellTiter-Glo 2.0 cell viability assay; format: cell-based, human
Procedure: CellTiter-Glo 2.0 Reagent (Promega UK Ltd, G9242) was equilibrated to room temperature and added to the wells in a ratio of 1 volume reagent:5 volumes medium. Background luminescence was determined using medium alone plus reagent. The plates were shaken on an orbital shaker for 2 min to induce cell lysis and then incubated in the dark at room temperature for 10 min to stabilize the luminescent signal. Luminescence was captured on a CLARIOstar plate reader (BMG Labtech Ltd, UK) at 22 °C to give relative luminescence units and analyzed using BMG Labtech software. EC50 values were calculated by nonlinear regression (Hill plot) and log (inhibitor) versus response—variable slopes (four parameters) using GraphPad Prism 9 software. Each compound dose response was repeated as four independent biological replicates (n = 4).

Solubility observations = format: physicochemical; settings: aqueous
HCT116 cells [5] = experiment: Apoptosis flow cytometry assay (sub-G1 population); format: cell-based, human; settings: 10 μM
Procedure: HCT116 cells were seeded (5 × 10^5 cells/plate) into 6 cm tissue culture plates for 24 h and then treated with 10 μM compounds (with 0.1% DMSO vehicle) or 0.1% DMSO control in fresh medium (5 mL total). The cells were then exposed to the compounds (10 μM) for 24 or 48 h. To harvest the cells, the medium was transferred from each sample plate to 15 mL centrifuge tubes. Each well was washed with 1 mL of phosphate-buffered saline (PBS) and the PBS was transferred to the corresponding 15 mL centrifuge tube. The plates were trypsinized, 2 mL of medium was added, and the cells and medium were transferred to the corresponding 15 mL centrifuge tubes. The harvested cells were pelleted by centrifugation (200g, 5 min, 4 °C), washed with 1 mL PBS, and then pelleted again by centrifugation (200g, 5 min, 4 °C). The supernatant was discarded, and the pellets resuspended in 1 mL of 70% ethanol (ice-cold) to fix the cells. Samples were stored at 4 °C and analyzed within two weeks. PBS (1 mL) was added to each sample tube containing cells fixed in 70% ethanol. The cells were pelleted by centrifugation (200g, 5 min, 4 °C), and the PBS wash was repeated. The supernatant was discarded, and the pellet was resuspended in 50 μL of RNase A (1 μg/mL, Thermo Scientific, EN0531) and left at room temperature for 10 min to digest contaminating RNA. A total of 500 μL of PI stain (50 μg/mL, Invitrogen, P3566) was added to each tube, and the tubes were incubated in the dark, at room temperature, for 30 min. Results were acquired on a BD FACSCanto II flow cytometer and analyzed using BD FACSdiva software. Sub-G1 population was calculated as a percentage of total cell population. Two independent biological replicates were performed.

LSD1 = LSD1 protein levels by western blotting; format: cell-based, human; settings: HCT116 cells, after 48 h
Procedure: as §1, §2
(§7) Figure S6. Representative Western blot of HDAC1/2/3 levels after 24 hours and 48 hours with 1
(§8) (JPS004), 7 (JPS014) and 9 (JPS016), and bar graph representation of HDAC1-3, LSD1 and Sin3a
(§9) protein levels after 24 hours and 48 hours as the average of three independent biological replicates.
(§10) (also on this page, place not known: HDAC1 24hHDAC2 24hHDAC3 24hHDAC1 48hHDAC2 48hHDAC3 %Protein Levels Remaining (Relative to DMSO) %Protein Levels Remaining (Relative to DMSO))

SIN3A = SIN3A protein levels by western blotting; format: cell-based, human; settings: HCT116 cells, 10 μM, after 24 h
Procedure: as §1, §2, §7, §8, §9, §10

[6] = p-adjusted < 0.01, log2 fold change > 1

HDAC1, sequence (Q13547 whole entry): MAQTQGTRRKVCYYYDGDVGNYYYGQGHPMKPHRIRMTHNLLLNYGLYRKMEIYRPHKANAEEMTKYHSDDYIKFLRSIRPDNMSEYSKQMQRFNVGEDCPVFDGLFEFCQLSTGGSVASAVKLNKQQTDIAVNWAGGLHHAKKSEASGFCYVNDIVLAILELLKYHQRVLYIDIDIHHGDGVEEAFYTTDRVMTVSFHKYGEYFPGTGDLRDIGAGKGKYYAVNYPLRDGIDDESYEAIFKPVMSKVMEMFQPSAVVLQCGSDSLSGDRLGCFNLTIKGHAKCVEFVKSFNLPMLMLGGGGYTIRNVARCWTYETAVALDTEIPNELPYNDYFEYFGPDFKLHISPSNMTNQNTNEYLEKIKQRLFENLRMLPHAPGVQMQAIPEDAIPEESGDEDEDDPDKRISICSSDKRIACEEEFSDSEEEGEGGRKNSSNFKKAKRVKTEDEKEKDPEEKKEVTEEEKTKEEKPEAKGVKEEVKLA
HDAC2, sequence (Q92769 whole entry): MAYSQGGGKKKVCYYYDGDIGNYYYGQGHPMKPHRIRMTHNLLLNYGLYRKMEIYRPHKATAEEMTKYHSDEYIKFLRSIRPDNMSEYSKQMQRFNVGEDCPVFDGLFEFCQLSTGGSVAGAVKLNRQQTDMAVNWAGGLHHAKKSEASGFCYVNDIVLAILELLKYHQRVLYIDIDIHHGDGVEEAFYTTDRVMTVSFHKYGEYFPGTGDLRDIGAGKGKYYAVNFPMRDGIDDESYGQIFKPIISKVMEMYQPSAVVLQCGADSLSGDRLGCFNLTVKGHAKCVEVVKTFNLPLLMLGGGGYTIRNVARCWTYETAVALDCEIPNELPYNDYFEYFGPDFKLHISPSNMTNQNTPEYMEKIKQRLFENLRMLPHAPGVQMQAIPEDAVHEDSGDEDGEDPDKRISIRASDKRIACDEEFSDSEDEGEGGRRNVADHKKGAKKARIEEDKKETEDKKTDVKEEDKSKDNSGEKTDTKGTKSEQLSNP
HDAC3, sequence (O15379 whole entry): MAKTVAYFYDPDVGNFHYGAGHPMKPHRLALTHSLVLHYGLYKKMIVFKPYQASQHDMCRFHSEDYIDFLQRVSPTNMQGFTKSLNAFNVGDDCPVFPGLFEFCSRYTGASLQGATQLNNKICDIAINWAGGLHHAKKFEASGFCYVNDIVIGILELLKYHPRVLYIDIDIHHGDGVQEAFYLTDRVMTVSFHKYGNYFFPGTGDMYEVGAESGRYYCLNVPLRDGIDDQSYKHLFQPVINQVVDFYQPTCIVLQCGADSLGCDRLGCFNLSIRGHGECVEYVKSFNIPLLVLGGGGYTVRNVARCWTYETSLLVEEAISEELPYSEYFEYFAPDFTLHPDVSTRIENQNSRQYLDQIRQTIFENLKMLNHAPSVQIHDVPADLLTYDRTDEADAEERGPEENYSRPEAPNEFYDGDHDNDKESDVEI
HDAC3, sequence (Q9Y618 389-480 partner limits assumed): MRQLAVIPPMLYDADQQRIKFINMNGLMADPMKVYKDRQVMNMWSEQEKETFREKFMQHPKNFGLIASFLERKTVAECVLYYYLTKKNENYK
T1 sequence (O15379 whole entry): as the sequence (O15379 whole entry) above
T1 sequence (Q9Y618 389-480 partner limits assumed): as the sequence (Q9Y618 389-480 partner limits assumed) above
T3 sequence (Q13547 whole entry, other chains not shown): as the sequence (Q13547 whole entry) above
T3 sequence (Q9UKL0 86-485 partner limits assumed, other chains not shown): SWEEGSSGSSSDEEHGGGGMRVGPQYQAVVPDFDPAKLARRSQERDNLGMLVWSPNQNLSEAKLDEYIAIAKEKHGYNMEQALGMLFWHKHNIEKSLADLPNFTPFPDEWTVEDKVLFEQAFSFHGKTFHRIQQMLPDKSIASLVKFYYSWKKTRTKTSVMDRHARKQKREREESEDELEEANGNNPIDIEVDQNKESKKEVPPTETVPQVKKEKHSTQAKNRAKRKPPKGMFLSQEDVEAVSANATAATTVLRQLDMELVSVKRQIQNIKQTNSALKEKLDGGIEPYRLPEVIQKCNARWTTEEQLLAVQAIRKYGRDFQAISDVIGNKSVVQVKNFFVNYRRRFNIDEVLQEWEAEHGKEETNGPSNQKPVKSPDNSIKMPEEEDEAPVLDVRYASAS
T2 sequence (Q92769 whole entry, other chains not shown): as the sequence (Q92769 whole entry) above
T2 sequence (Q9UKL0 86-485 partner limits assumed, other chains not shown): as the sequence (Q9UKL0 86-485 partner limits assumed, other chains not shown) above

## CC(=O)N[C@H](C(=O)N1C[C@H](O)C[C@H]1C(=O)NCc1ccc(-c2scnc2C)cc1OCCCCCCCCCCCC(=O)Nc1ccc(C(=O)Nc2ccccc2N)cc1)C(C)(C)C [Compound 21, (2S,4R)-1-((S)-2-Acetamido-3,3-dimethylbutanoyl)-N-(2-((12-((4-((2-aminophenyl)carbamoyl)phenyl)amino)-12-oxododecyl)oxy)-4-(4-methylthiazol-5-yl)benzyl)-4-hydroxypyrrolidine-2-carboxamide]
HCT116 cells [1]; compared with the more potent degraders
  Fold less DEGs: approximately 10 fold
H3K56ac
  H3K56ac levels (in words): increased H3K56ac levels significantly but not to the same levels as 1
HDAC3-SMRT complex
  IC50: 3.81 ± 0.79 µM
[2]
  IC50: 3.46 ± 0.78 µM
HDAC3; HCT116 cells, 24 h, 0.01-10 μM
  HDAC3 dose-response behaviour (hook effect): exhibit a standard dose response curve for HDAC3
HDAC3; HCT-116, read-out: Dmax HDAC3
  Dmax: 76%
HDAC1
  HDAC1 degradation in initial screen (in words): comparable HDAC1 and HDAC2 degradation to 1
HDAC1; HCT-116, read-out: Dmax HDAC1
  Dmax: 68%
[3]
  IC50: 1.81 ± 0.54 µM
HDAC2
  HDAC2 degradation in initial screen (in words): comparable HDAC1 and HDAC2 degradation to 1
HDAC2; HCT-116, read-out: Dmax HDAC2
  Dmax: 49%
HCT116 cells [4]; CellTiter-Glo and flow cytometry
  Effect on cell viability (in words): little effects on cell viability

## Cc1ncsc1-c1ccc(CNC(=O)[C@@H]2C[C@@H](O)CN2C(=O)[C@@H](NC(=O)CCCCCCCCCCCCC(=O)Nc2ccc(C(=O)Nc3ccccc3N)cc2)C(C)(C)C)cc1 [Compound 5, N1-(4-((2-Aminophenyl)carbamoyl)phenyl)-N14-((S)-1-((2S,4R)-4-hydroxy-2-((4-(4-methylthiazol-5-yl)benzyl)carbamoyl)-pyrrolidin-1-yl)-3,3-dimethyl-1-oxobutan-2-yl)tetradecanediamide]
H3K56ac
  H3K56ac levels (in words): only a modest increase in H3K56ac compared to the shorter linkers
Solubility observations
  Solubility (in words): solubility issues
HDAC1
  HDAC1 degradation in initial screen (in words): comparable HDAC1 and HDAC2 degradation to the shorter linkers
HDAC2
  HDAC2 degradation in initial screen (in words): comparable HDAC1 and HDAC2 degradation to the shorter linkers

## Cc1ncsc1-c1ccc(CNC(=O)[C@@H]2C[C@@H](O)CN2C(=O)[C@@H](NC(=O)COCCCCCCCCCOCC(=O)Nc2ccc(C(=O)Nc3ccccc3N)cc2)C(C)(C)C)cc1 [Compound 9, (2S,4R)-1-((S)-2-(2-((9-(2-((4-((2-Aminophenyl)carbamoyl)-phenyl)amino)-2-oxoethoxy)nonyl)oxy)acetamido)-3,3-dimethylbutanoyl)-4-hydroxy-N-(4-(4-methylthiazol-5-yl)benzyl)-pyrrolidine-2-carboxamide]
HCT116 cells [1]; [6]
  Number of downregulated DEGs: 1477
  Number of upregulated DEGs: 2464
H3K56ac
  H3K56ac levels (in words): increased H3K56ac levels to the same levels as CI-994
HCT116 cells [5]; after 24 h
  Percentage of cells in sub-G1 phase (in words): highest percentage of cells in the sub-G1 phase
HCT116 cells [5]; after 48 h
  Percentage of cells in sub-G1 phase (in words): highest percentage of cells in the sub-G1 phase
LSD1
  LSD1 levels: approximately 40 % of controls
SIN3A
  SIN3A levels (abundance): 60 % abundance
HDAC2
  HDAC2 degradation in initial screen (in words): marginally increased compared to 1 at 10 μM
HDAC2; HCT-116, read-out: Dmax HDAC2
  Dmax: 45%
HDAC2; HCT-116, read-out: Dmax HDAC2 in time course
  Dmax: 51%
HCT116 cells [4]; Homo sapiens, HCT-116, 48 h, 48 h
  EC50: 5.2 ± 0.6 µM
